According to US20120208848A1 (NEUROSYSTEC CORPORATION, priority 2005, published 2012):

Experiments:
Format in all cases: physicochemical
[1] = Gacyclidine decomposition in Ringer's Lactate at 37° C.
Procedure: (§1) To monitor piperidine formation a Zorbax SB-CN column (25×0.46 cm, 5 μm; PN 880975, SN USS F01 3866) purchased from Agilent Technologies was maintained at 30° C. and eluted with a mixture composed of 50% Buffer A and 50% Buffer B at 150 μL/minute for 60 minutes. Buffer A was composed of water containing 0.1% trifluoroacetic acid and Buffer B was composed of acetonitrile containing 0.1% trifluoroacetic acid. The effluent from this column was interfaced with an AQA single quadrupole mass spectrometer (Thermo Electron) and a Surveyor PDA detector (UV monitor, Thermo Electron). The column effluent was monitored at 232 nm and scans were collected between 200 to 300 nm by use of the PDA detector. […] Piperidine was detected by the mass spectrometer at 16.0 minutes after injection onto the Zorbax SB-CN column (at m/z=86 only). Piperidine could not be detected by use of the PDA (UV monitor).
The pH of these Ringer's Lactate solutions was adjusted by addition of hydrochloric acid or sodium bicarbonate ([…]). […] To analyze these samples for gacyclidine and piperidine, the samples were first extracted with methylene chloride and then back-extracted into dilute hydrochloric acid. To the 0.40 mL sample to be analyzed were added 50 μL of 1.0 M sodium hydroxide and 0.8 mL of methylene chloride. After vigorous mixing, the aqueous and methylene chloride layers were allowed to separate. To 0.4 mL of the methylene chloride phase were added 20 μL of 1.0 M hydrochloric acid and 0.78 mL of water. After vigorous mixing, the aqueous and methylene chloride layers were allowed to separate and the aqueous layer was analyzed for gacyclidine and piperidine. This extraction procedure was necessary to remove the salt present in the sample for optimum detection of piperidine.

[2] = Solubility of gacyclidine chloride salt and free base in water / Ringer's solution
Source text: The free base form of gacyclidine is poorly soluble in water and adheres to plastic surfaces.

[3] = Chemical stability of gacyclidine acid and base forms (decomposition to piperidine); conditions: for decomposition rate: 54° C.; for time required for 10% loss of gacyclidine due to decomposition / rate of decomposition: acid form
Procedure: as §1
Both sets of samples were then incubated for various lengths of time at either 54 or 56° C.
At 5° C., the rate of decomposition was very slow and was difficult to measure, except by determining piperidine formation. The rate of decomposition at 5° C. was approximately 0.0001 day^−1, as determined by piperidine formation, or 0.000055 day^−1 as determined by extrapolation from the rates at higher temperature according to the Arrhenius relationship.

[4] = Gacyclidine remaining in solution as a function of pH and excipients, 37° C., polypropylene vials
Procedure: This same procedure was conducted at 37° C., and the samples were maintained in polypropylene vials (VWR # 20170-710, 2 mL vial).

[5] = excess free base added to a solution at physiological pH
[6] = 0.1% SOLUTOL HS15, 37° C., polypropylene vials
[7] = 0.1% TWEEN 80, 37° C., polypropylene vials

## CC1CCCCC1(c1cccs1)N1CCCCC1.Cl (stereo not shown) [gacyclidine, 1-(2-methyl-1-thiophen-2-yl-cyclohexyl)-piperidine hydrochloride]
[1]; Ringer's Lactate solution, 37° C., from decomposition rates, read-out: apparent pKA
  pKa: 7.6
[1]; pH 5.5, 100 μM gacyclidine
  Time for 10% Loss (37° C., Ringer's Lactate): 3.7 ± 0.1 days
[1]; pH 6.0, 100 μM gacyclidine
  Time for 10% Loss (37° C., Ringer's Lactate): 3.82 ± 0.03 days
[1]; pH 7.4, 100 μM gacyclidine
  Time for 10% Loss (37° C., Ringer's Lactate): 6.1 ± 0.4 days
[1]; pH 7.4, 37° C., Ringer's Lactate
  decomposition rate as % of the rate expected for the acid form: 62%
[1]; pH 7.4 and 37° C.
  fraction of gacyclidine in the acid form: 62%
[2]; chloride salt, up to 150 mg/ml in water or unbuffered solution
  pH of solution: about 4.4
[2]; [5]
  final concentration of dissolved gacyclidine: ≤ 0.02 mg/mL
  pH of solution: ≤ 7.7
[2]; pH 4.4, chloride salt of the acid form, water or unbuffered Ringer's solution, read-out: solubility (solutions containing up to)
  solubility: ≤ 150000 µg/mL
[2]; pH 9.5, 0.05 M CAPSO, 0.1 M NaCl, 0.3 mg/mL added, room temperature, 2 days
  gacyclidine remaining in solution (HPLC): 0.0006 mg/mL
[2]; saline or isotonic, thermodynamic from solid, free base in Ringer's solution reacting with dissolved carbon dioxide, pH 7.6
  solubility thermodynamic: ~20 µg/mL
[3]; 1.0 mM gacyclidine in 10 mM hydrochloric acid (acid form)
  decomposition rate: 0.52 day⁻¹
[3]; 1.0 mM gacyclidine suspended in 1.5 mM sodium hydroxide (base form)
  decomposition rate: 0.0013 day⁻¹
[3]; 5° C.
  time required for 10% loss of gacyclidine due to decomposition: 3 years
[3]; 5° C., determined by piperidine formation
  rate of decomposition: approximately 0.0001 day^−1
[3]; 5° C., extrapolation from rates at higher temperature (Arrhenius)
  rate of decomposition: 0.000055 day⁻¹
[3]; 23° C.
  time required for 10% loss of gacyclidine due to decomposition: 53 days
[3]; 37° C.
  time required for 10% loss of gacyclidine due to decomposition: 3.8 days
[3]; 55° C.
  rate of decomposition: 0.73 day⁻¹
[3]; 56° C.
  time required for 10% loss of gacyclidine due to decomposition: 0.138 days
[4]; 0.1% CAPTISOL, 37° C., polypropylene containers
  solubility of the basic form with excipient: did not result in a clearly defined solubility
[4]; [6]
  gacyclidine retained in solution at high pH: ~32 μM
  gacyclidine retained in solution at high pH, % of total gacyclidine added: ~3.2%
[4]; [7]
  gacyclidine retained in solution at high pH: about 20 μM
  gacyclidine retained in solution at high pH, % of total gacyclidine added: ~2.0%
[4]; buffered aqueous solution, aqueous buffer, pH 9.2, 37° C., polypropylene vials, presence or absence of 0.1% SOLUPHOR P
  solubility kinetic at 2 days: ~1 µM
[4]; pH 9.2, 37° C., polypropylene vials, presence or absence of 0.1% SOLUPHOR P
  gacyclidine remaining in solution, % of the total gacyclidine added: ~0.1%
